Measured values as given in patent US10842152B2, “Isothiazolo-based bicycles, processes for their preparation and their use as herbicides and/or plant growth regulators” (Bayer CropScience Aktiengesellschaft, priority 2017, dated 2020).

Assays:
Viola tricolor [1] = experiment: Herbicidal effect post-emergence; format: in vivo; conditions: 320 g/ha, visual grading after ca. 3 weeks (Table 9)
Description: (§1) Herbicidal activities of the compounds of the formulae (G1) or (G2) according to the invention were investigated against the following harmful plants: • ALOMY=Alopecurus myosuroides • ECHCG=Echinochloa crus-galli • SETVI=Setaria viridis • ABUTH=Abutilon theophrasti • AMARE=Amaranthus retroflexus • PHBPU=Pharbitis purpurea • POLCO=Polygonum convolvulus (=Fallopia convolvulus) • STEME=Stellaria media • VIOTR=Viola tricolor
(§2) Seeds of mono- and dicotyledonous weed plants and crop plants are sown in wood-fiber pots in sandy loam, covered with soil and grown in a greenhouse under controlled growth conditions. 2 to 3 weeks after sowing, the test plants are sprayed in the single-leaf stage. The compounds according to the invention, formulated in form of wettable powders (WP) or as emulsifiable concentrates (EC), are then sprayed onto the green plant parts as aqueous suspension or emulsion, with the addition of 0.5% of an additive, at an application rate of 600 l of water/ha (converted). After the test plants had been in the greenhouse for ca. 3 weeks under optimum growth conditions, the effect of the preparations is assessed visually in comparison with untreated controls (herbicidal effect in percent (%): 100% effect=plants have died off, 0% effect=as control plants).

Setaria viridis [2] = experiment: Herbicidal effect post-emergence; format: in vivo; conditions: 320 g/ha, visual grading after ca. 3 weeks (Table 9)
Description: as §1, §2

Amaranthus retroflexus [3] = experiment: Herbicidal effect post-emergence; format: in vivo; conditions: 320 g/ha, visual grading after ca. 3 weeks (Table 9)
Description: as §1, §2

Viola tricolor [4] = experiment: Herbicidal effect pre-emergence; format: in vivo; conditions: 320 g/ha, visual grading after ca. 3 weeks vs untreated controls
Description: as §1
(§3) Seeds of mono- and dicotyledonous weed plants and crop plants are sown in wood-fiber pots in sandy loam and covered with soil. The compounds according to the invention, formulated in the form of wettable powders (WP) or as emulsifiable concentrates (EC), are then applied to the surface of the covering soil as aqueous suspension or emulsion, with the addition of 0.5% of an additive, at an application rate of 600 l of water/ha (converted).
(§4) Following treatment, the pots are placed in a greenhouse and kept under optimum growth conditions for the test plants. The visual grading of the damage to the test plants is carried out after ca. 3 weeks in comparison to untreated controls (herbicidal effect in percent (%): 100% effect=plants have died off, 0% effect=as control plants).

Setaria viridis [5] = experiment: Herbicidal effect pre-emergence; format: in vivo; conditions: 320 g/ha, visual grading after ca. 3 weeks vs untreated controls
Description: as §1, §3, §4

Amaranthus retroflexus [6] = experiment: Herbicidal effect pre-emergence; format: in vivo; conditions: 320 g/ha, visual grading after ca. 3 weeks vs untreated controls
Description: as §1, §3, §4

Alopecurus myosuroides = experiment: Herbicidal effect pre-emergence; format: in vivo; conditions: 320 g/ha, visual grading after ca. 3 weeks vs untreated controls
Description: as §1, §3, §4

Stellaria media = experiment: Herbicidal effect pre-emergence; format: in vivo; conditions: 320 g/ha, visual grading after ca. 3 weeks vs untreated controls
Description: as §1, §3, §4

MATIN = experiment: Herbicidal effect pre-emergence; format: in vivo, Matricaria inodora; conditions: 320 g/ha, visual grading after ca. 3 weeks vs untreated controls
Description: as §3, §4

CC(C)c1cc2c(NC(=O)C(F)(F)C(F)(F)F)nsc2c(=O)n1CC1CCCCC1 [Example I-021, N-[6-(cyclohexylmethyl)-5-isopropyl-7-oxo-isothiazolo[5,4-c]pyridin-3-yl]-2,2,3,3,3-pentafluoro-propanamide]
100%: herbicidal effect SETVI (Setaria viridis [2]) | herbicidal effect AMARE (Amaranthus retroflexus [3]) | herbicidal effect VIOTR (Viola tricolor [4]) | herbicidal effect AMARE (Amaranthus retroflexus [6])
90%: herbicidal effect SETVI (Setaria viridis [5])
80%: herbicidal effect VIOTR (Viola tricolor [1])

CC(C)Cc1cc2c(NC(=O)C(F)(F)F)nsc2c(=O)n1CC1CCCCC1 [Example I-056]
100%: herbicidal effect SETVI (Setaria viridis [2]) | herbicidal effect VIOTR (Viola tricolor [4])
90%: herbicidal effect VIOTR (Viola tricolor [1]) | herbicidal effect AMARE (Amaranthus retroflexus [3]) | herbicidal effect SETVI (Setaria viridis [5]) | herbicidal effect AMARE (Amaranthus retroflexus [6])

CCC(=O)Nc1nsc2c1CC(CO)N(CC1CCCCC1)C2=O (stereo not drawn) [Example I-044]
90%: herbicidal effect SETVI (Setaria viridis [5])
100%: herbicidal effect VIOTR (Viola tricolor [1]) | herbicidal effect SETVI (Setaria viridis [2]) | herbicidal effect AMARE (Amaranthus retroflexus [3]) | herbicidal effect VIOTR (Viola tricolor [4]) | herbicidal effect AMARE (Amaranthus retroflexus [6])

CCC(=O)N(C(=O)CC)c1nsc2c(=O)n(CC3CCCCC3)cc(Br)c12 [Example I-079]
90%: herbicidal effect SETVI (Setaria viridis [2])
100%: herbicidal effect VIOTR (Viola tricolor [1]) | herbicidal effect AMARE (Amaranthus retroflexus [3]) | herbicidal effect VIOTR (Viola tricolor [4]) | herbicidal effect SETVI (Setaria viridis [5]) | herbicidal effect AMARE (Amaranthus retroflexus [6])

CCC(=O)Nc1nsc2c(=O)n(CC3CCCCC3)c(CO)cc12 [Example I-048]
90%: herbicidal effect MATIN (MATIN)
80%: herbicidal effect ALOMY (Alopecurus myosuroides)
100%: herbicidal effect VIOTR (Viola tricolor [1]) | herbicidal effect SETVI (Setaria viridis [2]) | herbicidal effect AMARE (Amaranthus retroflexus [3]) | herbicidal effect VIOTR (Viola tricolor [4]) | herbicidal effect SETVI (Setaria viridis [5]) | herbicidal effect AMARE (Amaranthus retroflexus [6]) | herbicidal effect STEME (Stellaria media)

Nc1nsc2c(=O)n(CC3CCCCC3)cc(Br)c12 [Example I-054, 3-amino-4-bromo-6-(cyclohexylmethyl)isothiazolo[5,4-c]pyridin-7-one]
90%: herbicidal effect ALOMY (Alopecurus myosuroides)
100%: herbicidal effect VIOTR (Viola tricolor [1]) | herbicidal effect SETVI (Setaria viridis [2]) | herbicidal effect AMARE (Amaranthus retroflexus [3]) | herbicidal effect VIOTR (Viola tricolor [4]) | herbicidal effect SETVI (Setaria viridis [5]) | herbicidal effect AMARE (Amaranthus retroflexus [6]) | herbicidal effect STEME (Stellaria media) | herbicidal effect MATIN (MATIN)

CCC(=O)N(C(=O)CC)c1nsc2c(=O)n(CC3CCCCC3)cc(Cl)c12 [Example I-082]
100%: herbicidal effect VIOTR (Viola tricolor [1]) | herbicidal effect SETVI (Setaria viridis [2]) | herbicidal effect AMARE (Amaranthus retroflexus [3]) | herbicidal effect VIOTR (Viola tricolor [4]) | herbicidal effect SETVI (Setaria viridis [5]) | herbicidal effect AMARE (Amaranthus retroflexus [6])

C=Cc1cn(CC2CCCCC2)c(=O)c2snc(N)c12 [Example I-080]
80%: herbicidal effect VIOTR (Viola tricolor [1]) | herbicidal effect SETVI (Setaria viridis [5]) | herbicidal effect AMARE (Amaranthus retroflexus [6])
100%: herbicidal effect SETVI (Setaria viridis [2]) | herbicidal effect AMARE (Amaranthus retroflexus [3]) | herbicidal effect VIOTR (Viola tricolor [4])

O=C(Nc1nsc2c(=O)n(CC3CCCCC3)cc(Br)c12)C(F)(F)F [Example I-088]
100%: herbicidal effect VIOTR (Viola tricolor [1]) | herbicidal effect SETVI (Setaria viridis [2]) | herbicidal effect AMARE (Amaranthus retroflexus [3]) | herbicidal effect VIOTR (Viola tricolor [4]) | herbicidal effect SETVI (Setaria viridis [5]) | herbicidal effect ALOMY (Alopecurus myosuroides) | herbicidal effect AMARE (Amaranthus retroflexus [6]) | herbicidal effect STEME (Stellaria media) | herbicidal effect MATIN (MATIN)

O=C(Nc1nsc2c(=O)n(CC3CCCCC3)c(CO)cc12)C(F)(F)C(F)(F)F [Example I-047]
90%: herbicidal effect SETVI (Setaria viridis [2]) | herbicidal effect AMARE (Amaranthus retroflexus [3]) | herbicidal effect SETVI (Setaria viridis [5]) | herbicidal effect MATIN (MATIN)
80%: herbicidal effect ALOMY (Alopecurus myosuroides)
100%: herbicidal effect VIOTR (Viola tricolor [1]) | herbicidal effect VIOTR (Viola tricolor [4]) | herbicidal effect AMARE (Amaranthus retroflexus [6]) | herbicidal effect STEME (Stellaria media)

N#Cc1cn(CC2CCCCC2)c(=O)c2snc(N)c12 [Example I-135]
100%: herbicidal effect VIOTR (Viola tricolor [1]) | herbicidal effect AMARE (Amaranthus retroflexus [3]) | herbicidal effect VIOTR (Viola tricolor [4]) | herbicidal effect SETVI (Setaria viridis [5]) | herbicidal effect AMARE (Amaranthus retroflexus [6])
90%: herbicidal effect SETVI (Setaria viridis [2])

C#Cc1cn(CC2CCCCC2)c(=O)c2snc(N)c12 [Example I-070]
100%: herbicidal effect VIOTR (Viola tricolor [1]) | herbicidal effect SETVI (Setaria viridis [2]) | herbicidal effect AMARE (Amaranthus retroflexus [3]) | herbicidal effect VIOTR (Viola tricolor [4]) | herbicidal effect SETVI (Setaria viridis [5]) | herbicidal effect AMARE (Amaranthus retroflexus [6])

COCc1cc2c(N)nsc2c(=O)n1CC1CCCCC1 [Example I-028]
90%: herbicidal effect ALOMY (Alopecurus myosuroides) | herbicidal effect AMARE (Amaranthus retroflexus [6]) | herbicidal effect MATIN (MATIN)
100%: herbicidal effect VIOTR (Viola tricolor [4]) | herbicidal effect SETVI (Setaria viridis [5]) | herbicidal effect STEME (Stellaria media)

O=C(Nc1nsc2c(=O)n(CC3CCCCC3)cc(Br)c12)C(F)(F)C(F)(F)F [Example I-077]
100%: herbicidal effect AMARE (Amaranthus retroflexus [3]) | herbicidal effect VIOTR (Viola tricolor [4]) | herbicidal effect SETVI (Setaria viridis [5]) | herbicidal effect ALOMY (Alopecurus myosuroides) | herbicidal effect AMARE (Amaranthus retroflexus [6]) | herbicidal effect STEME (Stellaria media)
90%: herbicidal effect VIOTR (Viola tricolor [1]) | herbicidal effect SETVI (Setaria viridis [2]) | herbicidal effect MATIN (MATIN)

CCC(=O)Nc1nsc2c(=O)n(CC3CCCCC3)c(CC)cc12 [Example I-029]
100%: herbicidal effect VIOTR (Viola tricolor [4]) | herbicidal effect AMARE (Amaranthus retroflexus [6])
90%: herbicidal effect SETVI (Setaria viridis [5]) | herbicidal effect ALOMY (Alopecurus myosuroides) | herbicidal effect STEME (Stellaria media) | herbicidal effect MATIN (MATIN)

CC(C)(C)OC(=O)OC1CN(CC2CCCCC2)C(=O)c2snc(N)c21 (stereo not drawn) [Example I-138]
100%: herbicidal effect VIOTR (Viola tricolor [1]) | herbicidal effect AMARE (Amaranthus retroflexus [3]) | herbicidal effect VIOTR (Viola tricolor [4]) | herbicidal effect SETVI (Setaria viridis [5]) | herbicidal effect ALOMY (Alopecurus myosuroides) | herbicidal effect AMARE (Amaranthus retroflexus [6]) | herbicidal effect STEME (Stellaria media)
80%: herbicidal effect SETVI (Setaria viridis [2])
90%: herbicidal effect MATIN (MATIN)

COCC(=O)Nc1nsc2c(=O)n(CC3CCCCC3)cc(Cl)c12 [Example I-085]
100%: herbicidal effect VIOTR (Viola tricolor [1]) | herbicidal effect SETVI (Setaria viridis [2]) | herbicidal effect AMARE (Amaranthus retroflexus [3]) | herbicidal effect VIOTR (Viola tricolor [4]) | herbicidal effect SETVI (Setaria viridis [5]) | herbicidal effect AMARE (Amaranthus retroflexus [6])

Nc1nsc2c(=O)n(CC3CCCCC3)c(CO)cc12 [Example I-036]
90%: herbicidal effect AMARE (Amaranthus retroflexus [3]) | herbicidal effect SETVI (Setaria viridis [5])
100%: herbicidal effect VIOTR (Viola tricolor [1]) | herbicidal effect SETVI (Setaria viridis [2]) | herbicidal effect AMARE (Amaranthus retroflexus [6])
80%: herbicidal effect VIOTR (Viola tricolor [4])
